# Measurements: patent US11077205B2, “Synthetic compound for improving efficiency of transfection” (Klinikum der Universität München, priority 2016, dated 2021)
# The star is where a group is joined. ξ: configuration not given here. Lipoyl(6ξ) = O=C(CCCCC1CCSS1)*
# Test system: 16HBE cells
# Assay: Cell endocytosis mechanism assay, uptake of Fluo-pDNA containing P704 based ternary complexes (flow cytometry)
# Set-up: species or system human
# Conditions: for endocytosis of ternary complexes in presence of free compound and its fragments (competition): FIG. 11c/11d
# Procedure: In order to study the cellular uptake different binary and ternary complexes, 16 HBE cells (7×10^5/well) were seeded in 6-well plate 24 h before investigation. P704 based binary complexes were prepared by mixing P704 at the concentration of 63 (w/w) with Fluo-pDNA in Tyrode's solution. Compound 9 based binary complexes were prepared by mixing compound 9 at the N/P ratio of 5 with Fluo-pDNA in NF-water. P704 based ternary complexes consisted of P704 at the concentration of 63 (w/w), compound 0 (DL) or compound 9 at optimum N/P ratio and Fluo-pDNA. P304 based ternary complexes consisted of P304 at the concentration of 2000 (w/w), compound 8 at N/P ratio of 20 and Fluo-pDNA. P90R4 based ternary complexes consisted of P90R4 at the concentration of 1600 (w/w), compound 8 at N/P ratio of 15 and Fluo-pDNA. The amount of Fluo-pDNA in each sample was 4 μg/well. Naked Fluo-pDNA was served as a negative control. After 4 h incubation, medium was removed. The cells were harvested and rinsed with cold PBS for three times followed immediately by flow cytometry analysis. The amount of 10 000 live cells was collected for each sample.
# With the purpose of identifying possible internalization mechanisms of ternary complexes by human bronchial epithelium cells, 16 HBE cells were pre-incubated at different temperatures or treated with specific agents at 37° C. for 1 h, then incubated with P704 based ternary complexes in the same conditions as described above. (I, II) To examine the effects of chlorpromazine and filipin, which were the clathrin- and caveolae-dependent endocytosis inhibitors, 10 μg/ml chlorpromazine or 1 μg/ml filipin in OptiMEM were used. (III) To study the effect of amiloride (macropinocytosis inhibitor), 0.3 mg/ml amiloride was adopted. (IV) To investigate the effect of protamine, an adsorptive-mediated endocytosis inhibitor, 1 mM protamine sulfate was added. […]
Substance,endocytosis of ternary complexes in presence of free compound and its fragments (competition),cell uptake of ternary complexes at 4° C. and in the presence of NaN3 (FIG. 11a)
NH2-VKRKKKPKKRRRRKKWK(DL-lipoic acid)-CONH2 (H-VKRKKKPKKRRRRKKWK(Lipoyl(6ξ))-NH2; SMILES CC(C)[C@H](N)C(=O)N[C@@H](CCCCN)C(=O)N[C@@H](CCCNC(=N)N)C(=O)N[C@@H](CCCCN)C(=O)N[C@@H](CCCCN)C(=O)N[C@@H](CCCCN)C(=O)N1CCC[C@H]1C(=O)N[C@@H](CCCCN)C(=O)N[C@@H](CCCCN)C(=O)N[C@@H](CCCNC(=N)N)C(=O)N[C@@H](CCCNC(=N)N)C(=O)N[C@@H](CCCNC(=N)N)C(=O)N[C@@H](CCCNC(=N)N)C(=O)N[C@@H](CCCCN)C(=O)N[C@@H](CCCCN)C(=O)N[C@@H](Cc1c[nH]c2ccccc12)C(=O)N[C@@H](CCCCNC(=O)CCCCC1CCSS1)C(N)=O) [compound 0 (DL)],cannot be inhibited by free compound 0 (DL) and its fragment sequence,
KETWWETWWTEWWTEW-KKKKRRRRRKKKK-GACSERSMNFCG (KETWWETWWTEWWTEWKKKKRRRRRKKKKGACSERSMNFCG) [compound 9],inhibited by free compound 9 and free peptide GACSERSMNFCG,Energy-dependent cell uptake
